Literature values in PubChem BioAssay AID1259409 (Chemical Carcinogenesis Research Information System (CCRIS), 2018).
Values joined by “and” are separate entries in the source; they are usually repeats but may differ in a detail not shown here. Equal entries are not always repeated.

Test system: rodent chemically induced tumor inhibition, incidence and multiplicity
Experiment: CCRIS tumor inhibitor studies
Details: Promoter: NONE USED

Structure (SMILES): CCOc1ccc2c(c1)C(C)=CC(C)(C)N2
- tumour outcome (control, treated, inhibition, significance) (Carcinogen: 1,2-DIMETHYLHYDRAZINE, 540-73-8, Dose [Inhibitor]: 0, 0.8% IN DIET BEGINNING 1 WK POST LAST CARCINOGEN DOSE AND CONTINUING FOR 36 WK (STUDY DURATION: 40 WK), Route [Inhibitor]: ORAL, Species: RAT, Strain/Sex: F344/MALE, Target Tissue: Type of Lesion: COLON: ADENOMA, Dose [Carcinogen]: 20 MG/KG 1/WK FOR 4 WK): 1/20 (5%), 4/18 (22%), -340%, not calculated
- tumour outcome (control, treated, inhibition, significance) (Carcinogen: 1,2-DIMETHYLHYDRAZINE, 540-73-8, Dose [Inhibitor]: 0, 0.8% IN DIET BEGINNING 1 WK POST LAST CARCINOGEN DOSE AND CONTINUING FOR 36 WK (STUDY DURATION: 40 WK), Route [Inhibitor]: ORAL, Species: RAT, Strain/Sex: F344/MALE, Target Tissue: Type of Lesion: COLON: CARCINOMA, Dose [Carcinogen]: 20 MG/KG 1/WK FOR 4 WK): 6/20 (30%), 7/18 (39%), -30%, not calculated
- tumour outcome (control, treated, inhibition, significance) (Carcinogen: 7,12-DIMETHYLBENZ[A]ANTHRACENE, 57-97-6, Dose [Inhibitor]: 200 MG IN 1 ML OLIVE OIL ONCE (STUDY DURATION: 18 WK), Route [Inhibitor]: GAVAGE, Species: RAT, Strain/Sex: SPRAGUE-DAWLEY/FEMALE, Target Tissue: Type of Lesion: MAMMARY GLAND: TUMOR, Dose [Carcinogen]: 12 MG IN 1 ML OLIVE OIL ADMINISTERED 1 HR AFTER INHIBITOR): 27/34 (79%), 2/17 (12%), 85%, p<0.01
- tumour outcome (control, treated, inhibition, significance) (Carcinogen: CIPROFIBRATE, 52214-84-3, Dose [Inhibitor]: 0.5% IN DIET FOR 60 WK (STUDY DURATION: 60 WK), Route [Inhibitor]: ORAL, Species: RAT, Strain/Sex: F344/MALE, Target Tissue: Type of Lesion: LIVER: TUMOR, Dose [Carcinogen]: 10 MG/KG BODY WEIGHT IN DIET SIMULTANEOUSLY WITH INHIBITOR FOR 60 WK): 21/25 (84%), 7/24 (29%), 65%, p<0.005 and 22/25 (88%), 4/24 (17%), 81%, p<0.005
- tumour outcome (control, treated, inhibition, significance) (Carcinogen: N-BIS(2-HYDROXYPROPYL)NITROSAMINE, 53609-64-6, Dose [Inhibitor]: 0, 0.8% IN DIET FOR 30 WK BEGINNING POST CARCINOGEN TREATMENT (STUDY DURATION: 32 WK0, Route [Inhibitor]: ORAL, Species: RAT, Strain/Sex: F344/MALE, Target Tissue: Type of Lesion: THYROID: ADENOMA, Dose [Carcinogen]: 0.1% IN DRINKING WATER FOR 2 WK): 1/20 (5%), 19/20 (95%), -1800%, p<0.001
- tumour outcome (control, treated, inhibition, significance) (Carcinogen: N-BIS(2-HYDROXYPROPYL)NITROSAMINE, 53609-64-6, Dose [Inhibitor]: 0, 0.8% IN DIET FOR 30 WK BEGINNING POST CARCINOGEN TREATMENT (STUDY DURATION: 32 WK), Route [Inhibitor]: ORAL, Species: RAT, Strain/Sex: F344/MALE, Target Tissue: Type of Lesion: BLADDER: ADENOMA, Dose [Carcinogen]: 0.1% IN DRINKING WATER FOR 2 WK): 5%, 5%, 0%, not significant
- tumour outcome (control, treated, inhibition, significance) (Carcinogen: N-BIS(2-HYDROXYPROPYL)NITROSAMINE, 53609-64-6, Dose [Inhibitor]: 0, 0.8% IN DIET FOR 30 WK BEGINNING POST CARCINOGEN TREATMENT (STUDY DURATION: 32 WK), Route [Inhibitor]: ORAL, Species: RAT, Strain/Sex: F344/MALE, Target Tissue: Type of Lesion: KIDNEY: TUMOR, Dose [Carcinogen]: 0.1% IN DRINKING WATER FOR 2 WK): 10%, 30%, -200%, not calculated
- tumour outcome (control, treated, inhibition, significance) (Carcinogen: N-BIS(2-HYDROXYPROPYL)NITROSAMINE, 53609-64-6, Dose [Inhibitor]: 0, 0.8% IN DIET FOR 30 WK BEGINNING POST CARCINOGEN TREATMENT (STUDY DURATION: 32 WK), Route [Inhibitor]: ORAL, Species: RAT, Strain/Sex: F344/MALE, Target Tissue: Type of Lesion: LUNG: ADENOMA, Dose [Carcinogen]: 0.1% IN DRINKING WATER FOR 2 WK): 100%, 95%, 5%, not calculated
- tumour outcome (control, treated, inhibition, significance) (Carcinogen: N-BIS(2-HYDROXYPROPYL)NITROSAMINE, 53609-64-6, Dose [Inhibitor]: 0, 0.8% IN DIET FOR 30 WK BEGINNING POST CARCINOGEN TREATMENT (STUDY DURATION: 32 WK), Route [Inhibitor]: ORAL, Species: RAT, Strain/Sex: F344/MALE, Target Tissue: Type of Lesion: LUNG: CARCINOMA, Dose [Carcinogen]: 0.1% IN DRINKING WATER FOR 2 WK): 45%, 15%, 67%, p<0.05
- tumour outcome (control, treated, inhibition, significance) (Carcinogen: N-BIS(2-HYDROXYPROPYL)NITROSAMINE, 53609-64-6, Dose [Inhibitor]: 0, 0.8% IN DIET FOR 30 WK BEGINNING POST CARCINOGEN TREATMENT (STUDY DURATION: 32 WK), Route [Inhibitor]: ORAL, Species: RAT, Strain/Sex: F344/MALE, Target Tissue: Type of Lesion: THYROID: ADENOMA, Dose [Carcinogen]: 0.1% IN DRINKING WATER FOR 2 WK): 5%, 95%, -1800%, p<0.001
- tumour outcome (control, treated, inhibition, significance) (Carcinogen: N-BIS(2-HYDROXYPROPYL)NITROSAMINE, 53609-64-6, Dose [Inhibitor]: 0, 0.8% IN DIET FOR 30 WK BEGINNING POST CARCINOGEN TREATMENT (STUDY DURATION: 32 WK), Route [Inhibitor]: ORAL, Species: RAT, Strain/Sex: F344/MALE, Target Tissue: Type of Lesion: THYROID: CARCINOMA, Dose [Carcinogen]: 0.1% IN DRINKING WATER FOR 2 WK): 20%, 50%, -150%, not calculated
- outcome (Carcinogen: N-ETHYL-N-HYDROXYETHYLNITROSAMINE, 13147-25-6, Dose [Inhibitor]: 0.8% IN DIET BEGINNING 1 WK AFTER LAST CARCINOGEN TREATMENT AND CONTINUING THROUGH DURATION OF STUDY (STUDY DURATION: 32, Route [Inhibitor]: ORAL, Species: RAT, Strain/Sex: F344/MALE, Target Tissue: Type of Lesion: KIDNEY: ADENOCARCINOMA, Dose [Carcinogen]: 0.1% IN DRINKING WATER FOR 2 WK AT BEGINNING OF STUDY): 0/23 (0%), 3/27 (11%), -11%, not significant
- tumour outcome (control, treated, inhibition, significance) (Carcinogen: N-ETHYL-N-HYDROXYETHYLNITROSAMINE, 13147-25-6, Dose [Inhibitor]: 0.8% IN DIET BEGINNING 1 WK AFTER LAST CARCINOGEN TREATMENT AND CONTINUING THROUGH DURATION OF STUDY (STUDY DURATION: 32, Route [Inhibitor]: ORAL, Species: RAT, Strain/Sex: F344/MALE, Target Tissue: Type of Lesion: KIDNEY: ADENOMA, Dose [Carcinogen]: 0.1% IN DRINKING WATER FOR 2 WK AT BEGINNING OF STUDY): 5/23 (22%), 17/27 (63%), -186%, p<0.001
- tumour outcome (control, treated, inhibition, significance) (Carcinogen: N-ETHYL-N-HYDROXYETHYLNITROSAMINE, 13147-25-6, Dose [Inhibitor]: 0.8% IN DIET BEGINNING 1 WK AFTER LAST CARCINOGEN TREATMENT AND CONTINUING THROUGH DURATION OF STUDY (STUDY DURATION: 32, Route [Inhibitor]: ORAL, Species: RAT, Strain/Sex: F344/MALE, Target Tissue: Type of Lesion: LIVER: HEPATOCELLULAR CARCINOMA, Dose [Carcinogen]: 0.1% IN DRINKING WATER FOR 2 WK AT BEGINNING OF STUDY): 11/23 (48%), 3/27 (11%), 77%, p<0.05
- tumour outcome (control, treated, inhibition, significance) (Carcinogen: URETHANE, 51-79-6, Dose [Inhibitor]: 0.75% IN DIET 1/WK FOR 24 HR AFTER OVERNIGHT FAST TREATMENT REPEATED FOR 8 CONSECUTIVE WK BEGINNING 1 D AFTER CARCINOGEN, Route [Inhibitor]: ORAL, Species: MOUSE, Strain/Sex: STRAIN A/MALE, Target Tissue: Type of Lesion: LUNG: TYPE II ALVEOLAR CELL TUMORS, CLARA CELL TUMORS, Dose [Carcinogen]: 500 MG/KG ONCE AT 8 WK OF AGE): 100%, 100%, 0%, not significant
- tumour outcome (control, treated, inhibition, significance) (Dose [Inhibitor]: 0.05% DIET FOR 2 WK STARTING 2 WK PRIOR TO START OF CARCINOGEN TREATMENT (STUDY DURATION: 48 WK), Route [Inhibitor]: ORAL, Species: RAT, Strain/Sex: F344/MALE, Target Tissue: Type of Lesion: LIVER: CELL TUMOR, Dose [Carcinogen]: 4 PPM IN DIET DAILY FOR 6 WK): 3/11 (27%), 1/15 (7%), 74%, not calculated
- tumour outcome (control, treated, inhibition, significance) (Dose [Inhibitor]: 0.05% IN DIET FOR 2 WK STARTING 2 WK PRIOR TO INITIATION OF CARCINOGEN TREATMENT (STUDY DURATION: 48 WK), Route [Inhibitor]: ORAL, Species: RAT, Strain/Sex: F344/MALE, Target Tissue: Type of Lesion: LIVER: LIVER CELL TUMOR, Dose [Carcinogen]: 4 PPM IN DIET FOR 6 WK FOLLOWED BY 40 WK ON CONTROL DIET): 3/11 (27%), 1/12 (8%), 70%, not calculated
- tumour outcome (control, treated, inhibition, significance) (Dose [Inhibitor]: 0.5% DIET FOR 2 WK STARTING 2 WK PRIOR TO START OF CARCINOGEN TREATMENT (STUDY DURATION: 48 WK), Route [Inhibitor]: ORAL, Species: RAT, Strain/Sex: F344/MALE, Target Tissue: Type of Lesion: LIVER: CELL TUMOR, Dose [Carcinogen]: 4 PPM IN DIET DAILY FOR 6 WK): 3/11 (27%), 0/15 (0%), 100%, not calculated
- tumour outcome (control, treated, inhibition, significance) (Dose [Inhibitor]: 0.5% DIET FOR 2 WK STARTING POST CARCINOGEN TREATMENT AND FOLLOWED BY 40 WK ON CONTROL DIET (STUDY DURATION: 48 WK), Route [Inhibitor]: ORAL, Species: RAT, Strain/Sex: F344/MALE, Target Tissue: Type of Lesion: LIVER: CELL TUMOR, Dose [Carcinogen]: 4 PPM DIET DAILY FOR 6 WK): 3/11 (27%), 3/15 (20%), 26%, not significant
- tumour outcome (control, treated, inhibition, significance) (Dose [Inhibitor]: 0.5% DIET FOR 6 WK ADMINISTERED CONCURRENTLY WITH CARCINOGEN TREATMENT FOLLOWED BY 42 WK ON CONTROL DIET (STUDY DURATION, Route [Inhibitor]: ORAL, Species: RAT, Strain/Sex: F344/MALE, Target Tissue: Type of Lesion: LIVER: CELL TUMOR, Dose [Carcinogen]: 4 PPM DIET DAILY FOR 6 WK): 3/11 (27%), 0/15 (0%), 100%, not calculated
- tumour outcome (control, treated, inhibition, significance) (Dose [Inhibitor]: 0.5% IN DIET FOR 2 WK STARTING 2 WK PRIOR TO INITIATION OF CARCINOGEN (STUDY DURATION: 48 WK), Route [Inhibitor]: ORAL, Species: RAT, Strain/Sex: F344/MALE, Target Tissue: Type of Lesion: LIVER: LIVER CELL TUMOR, Dose [Carcinogen]: 4 PPM IN DIET FOR 6 WK FOLLOWED BY 40 WK ON CONTROL DIET): 3/11 (27%), 0/15 (0%), 100%, not calculated
- tumour outcome (control, treated, inhibition, significance) (Dose [Inhibitor]: 0.5% IN DIET FOR 6 WK ADMINISTERED SIMULTANEOUSLY WITH CARCINOGEN FOLLOWED BY 42 WK ON CONTROL DIET (STUDY DURATION: 48, Route [Inhibitor]: ORAL, Species: RAT, Strain/Sex: F344/MALE, Target Tissue: Type of Lesion: LIVER: LIVER CELL TUMOR, Dose [Carcinogen]: 4 PPM IN DIET FOR 6 WK): 3/11 (20%), 0/9 (0%), 100%, not calculated
